Test results taken from US8633237B2, “Indane derivatives” (Merck Sharp & Dohme B.V., priority 2009, dated 2014).

Target: T1, AMPA (GluR1) receptor (Homo sapiens, UniProt P42261)
T1 construct: expressed in transfected cells; host or cells: HEK cells (HEK.GluR1(i)), kept under hygromycin selection
Test: Ca2+ influx fluorescence assay (FLEXstation, Fluo-3) in HEK.GluR1(i) cells
Format: cell-based
Conditions: glutamate +/- test compound, read-out: EC50, positive modulation of the AMPA receptor
Text: The compounds in this invention may be tested using a biological assay which measures Ca^2+ influx mediated through positive modulation of the AMPA (GluR1) receptor using standard techniques in the art such as, but not limited to, a FLEXstation (manufactured by Molecular Devices, Sunnyvale, Calif.). An optical readout using fluorescent probes is employed to measure ion channel dependent changes in intracellular ion concentration or membrane potential. The assay utilises the Ca^2+ conductance of functional homomeric GluR1(i) AMPA receptors to generate glutamate-dependent Ca^2+ responses. Influx of Ca^2+ through the ion channel is measured indirectly through an increase in intracellular Ca^2+ levels using the calcium sensitive dye such as, but not limited to, Fluo-3 (Molecular Devices, Sunnyvale, Calif.) in FLEXstation. A positive AMPA receptor modulator, in the presence of glutamate, will result in an influx of Ca^2+ through the ion channel which can be measured indirectly through an increase in intracellular Ca2+ levels using the calcium sensitive dye Fluo-3 in FLEXstation.
HEK.GluR1(i) cells were maintained in DMEM supplemented with 10% fetaclone II, 1% non-essential amino acids and 150 μg/mL hygromycin, at 37° C./5% CO2. […]

T1 sequence (P42261 19-906 isoform P42261-2 limits assumed, species assumed): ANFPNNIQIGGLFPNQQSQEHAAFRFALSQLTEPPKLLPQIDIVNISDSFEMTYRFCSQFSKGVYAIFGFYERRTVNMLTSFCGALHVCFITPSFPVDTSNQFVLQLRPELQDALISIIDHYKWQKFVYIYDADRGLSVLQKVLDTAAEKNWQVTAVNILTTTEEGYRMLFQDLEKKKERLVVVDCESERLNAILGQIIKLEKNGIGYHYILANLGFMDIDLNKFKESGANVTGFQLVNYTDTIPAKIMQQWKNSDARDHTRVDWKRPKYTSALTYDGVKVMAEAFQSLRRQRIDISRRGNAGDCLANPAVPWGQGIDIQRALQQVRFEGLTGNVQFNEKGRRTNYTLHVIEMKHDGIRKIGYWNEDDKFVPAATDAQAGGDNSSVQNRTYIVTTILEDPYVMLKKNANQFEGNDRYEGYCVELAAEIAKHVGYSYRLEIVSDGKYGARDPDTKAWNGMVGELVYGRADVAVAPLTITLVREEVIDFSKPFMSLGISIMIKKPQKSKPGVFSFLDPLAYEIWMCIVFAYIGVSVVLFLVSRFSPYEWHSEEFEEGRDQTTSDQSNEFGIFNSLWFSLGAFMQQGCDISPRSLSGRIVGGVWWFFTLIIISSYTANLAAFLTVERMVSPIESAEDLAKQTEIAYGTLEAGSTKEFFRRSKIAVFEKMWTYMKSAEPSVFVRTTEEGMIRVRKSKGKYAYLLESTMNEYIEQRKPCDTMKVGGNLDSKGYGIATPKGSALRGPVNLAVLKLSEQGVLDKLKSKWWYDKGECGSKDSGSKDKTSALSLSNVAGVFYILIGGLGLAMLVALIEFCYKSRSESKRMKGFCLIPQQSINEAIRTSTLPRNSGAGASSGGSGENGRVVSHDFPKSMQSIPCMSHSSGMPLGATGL

- EC50: 2300 nM
SMILES: CC(C)S(=O)(=O)N[C@H]1Cc2ccc(Oc3cccc(C(F)(F)F)c3)cc2C1 [Example 9, (S)-N-(5-(3-(trifluoromethyl)phenoxy)-2,3-dihydro-1H-inden-2-yl)propane-2-sulfonamide]
